{"source": "patent US7226923B2", "about": "“Phthalazinone derivatives” (Hoffman-La Roche Inc., priority 2004, dated 2007)"}
{"molecular_target": "T1, Aurora A (Homo sapiens, UniProt O14965)", "T1 construct": "C-terminally Histidine4 (His4)-tagged Aurora A full-length protein", "T1 sequence (O14965 1-403)": "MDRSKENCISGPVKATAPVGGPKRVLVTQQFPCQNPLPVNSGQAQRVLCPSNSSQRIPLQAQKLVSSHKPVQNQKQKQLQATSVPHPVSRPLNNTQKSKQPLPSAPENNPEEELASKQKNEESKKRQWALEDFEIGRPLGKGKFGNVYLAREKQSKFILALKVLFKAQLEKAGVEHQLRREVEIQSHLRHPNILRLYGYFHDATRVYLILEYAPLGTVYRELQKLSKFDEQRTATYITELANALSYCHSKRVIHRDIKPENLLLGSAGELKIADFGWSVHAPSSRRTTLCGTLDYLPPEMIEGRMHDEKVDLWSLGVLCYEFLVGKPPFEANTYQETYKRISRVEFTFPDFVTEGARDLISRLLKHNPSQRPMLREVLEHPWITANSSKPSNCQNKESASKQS", "assay": "IC50 determination for inhibitors of Aurora A (96 MTP-ELISA)", "assay_type": "biochemical", "conditions": "His4-tagged full-length Aurora A 250 ng/ml, PKB-GSK2 200 nM, ATP 4 μM, 90 min at room temperature, read-out: IC50 Aurora A kinase inhibition", "experimental": "IC50 Determination for Inhibitors of Aurora A\n• Aurora A is a serine threonine kinase involved in spindle assembly and chromosome segregation.\nThe assay is a typically ELISA-type assay where biotinylated substrate (PKB-GSK2) is phosphorylated. Phosphorylation is detected by peroxidase (POD) labelled polyclonal antibody (PAK<M-Ig>S-IgG-POD) and phosphopeptide monoclonal antibody (Mab) (MAK<P-GSK>M-27E5-IgG). The assay is validated for IC50-determination.\nMethod • This assay is performed in 96-well format for IC50 determination with 5 samples (each with 8 concentrations by twofold testing), 100 μl incubation volume and the following plate layout: […]", "units": {"IC50": "nM"}}
{"smiles": "Cc1cc(Nc2nn(-c3ccc(F)cc3)c(=O)c3ccccc23)n[nH]1", "note": "[Example A-7, 2-(4-Fluoro-phenyl)-4-(5-methyl-1H-pyrazol-3-ylamino)-2H-phthalazin-1-one]", "IC50": "1 to 100"}
{"smiles": "COc1ccc(-n2nc(Nc3cc(C)[nH]n3)c3ccccc3c2=O)cc1", "note": "[Example A-9, 2-(4-Methoxy-phenyl)-4-(5-methyl-1H-pyrazol-3-ylamino)-2H-phthalazin-1-one]", "IC50": "1 to 100"}
{"smiles": "Cc1ccc(-n2nc(Nc3cc[nH]n3)c3ccccc3c2=O)cc1", "note": "[Example A-10, 4-(1H-Pyrazol-3-ylamino)-2-p-tolyl-2H-phthalazin-1-one]", "IC50": "100 to 1000"}
{"smiles": "COc1ccc(Cn2nc(Nc3cc(C)[nH]n3)c3ccccc3c2=O)cc1", "note": "[Example A-11, 2-(4-Methoxy-benzyl)-4-(5-methyl-1H-pyrazol-3-ylamino)-2H-phthalazin-1-one]", "IC50": "1 to 100"}
{"smiles": "Cc1cc(Nc2nn(Cc3ccc(S(C)(=O)=O)cc3)c(=O)c3ccccc23)[nH]n1", "note": "[Example A-14, 2-(4-Methanesulfonyl-benzyl)-4-(5-methyl-2H-pyrazol-3-ylamino)-2H-phthalazin-1-one]", "IC50": "1 to 100"}
{"smiles": "Cc1cc(Nc2nn(Cc3cccnc3)c(=O)c3ccccc23)[nH]n1", "note": "[Example A-18, 4-(5-Methyl-2H-pyrazol-3-ylamino)-2-pyridin-3-ylmethyl-2H-phthalazin-1-one]", "IC50": "1 to 100"}
{"smiles": "Cc1cc(Nc2nn(C(C)C)c(=O)c3ccccc23)n[nH]1", "note": "[Example A-23, 2-Isopropyl-4-(5-methyl-1H-pyrazol-3-ylamino)-2H-phthalazin-1-one]", "IC50": "1 to 100"}
{"smiles": "Cc1cc(Nc2nn(Cc3cccc(C(=O)O)c3)c(=O)c3ccccc23)n[nH]1", "note": "[Example A-24, 3-[4-(5-Methyl-1H-pyrazol-3-ylamino)-1-oxo-1H-phthalazin-2-ylmethyl]-benzoic acid]", "IC50": "1 to 100"}
{"smiles": "CC(=O)Nc1ccc(Cn2nc(Nc3cc[nH]n3)c3ccccc3c2=O)cc1", "note": "[Example D-2, N-{4-[1-Oxo-4-(1H-pyrazol-3-ylamino)-1H-phthalazin-2-ylmethyl]-phenyl}-acetamide]", "IC50": 555}
{"smiles": "COc1ccc(C(=O)Cn2nc(Nc3cc(C)[nH]n3)c3ccccc3c2=O)cc1", "note": "[Example E-4, 2-[2-(4-Methoxy-phenyl)-2-oxo-ethyl]-4-(5-methyl-1H-pyrazol-3-ylamino)-2H-phthalazin-1-one]", "IC50": "1 to 100"}
{"smiles": "Cc1cc(Nc2nn(C(C)C)c(=O)c3cc(N(C)C)ccc23)n[nH]1", "note": "[Example F-6, 2-Isopropyl-4-(5-methyl-1H-pyrazol-3-ylamino)-7-dimethylamino-2H-phthalazin-1-one]", "IC50": "1 to 100"}
{"smiles": "Cc1cc(Nc2nn(C(C)C)c(=O)c3ccc(N(C)C)cc23)n[nH]1", "note": "[Example F-7, 2-Isopropyl-4-(5-methyl-1H-pyrazol-3-ylamino)-6-dimethylamino-2H-phthalazin-1-one]", "IC50": "100 to 1000"}
{"smiles": "COc1ccc2c(Nc3cc(C)[nH]n3)nn(Cc3ccccc3)c(=O)c2c1", "note": "[Example G-8, 2-Benzyl-7-methoxy-4-(5-methyl-1H-pyrazol-3-ylamino)-2H-phthalazin-1-one]", "IC50": "1 to 100"}
{"smiles": "Cc1cc(Nc2nn(C(C)C)c(=O)c3cc(S(C)(=O)=O)ccc23)n[nH]1", "note": "[Example H-2, 2-Isopropyl-7-methanesulfonyl-4-(5-methyl-1H-pyrazol-3-ylamino)-2H-phthalazin-1-one]", "IC50": "1 to 100"}
{"smiles": "Cc1cc(Nc2nn(C(C)C)c(=O)c3cc(N(C)Cc4ccncc4)ccc23)n[nH]1", "note": "[Example I-2, 2-Isopropyl-4-(5-methyl-1H-pyrazol-3-ylamino)-7-(methyl-pyridin-4-ylmethyl-amino)-2H-phthalazin-1-one]", "IC50": "1 to 100"}
{"smiles": "CC(=O)N(C)c1ccc2c(Nc3cc(C)[nH]n3)nn(C(C)C)c(=O)c2c1", "note": "[Example I-5, N-[3-Isopropyl-1-(5-methyl-1H-pyrazol-3-ylamino)-4-oxo-3,4-dihydro-phthalazin-6-yl]-N-methyl-acetamide]", "IC50": "1 to 100"}
{"smiles": "Cc1cc(Nc2nn(C(C)C)c(=O)c3cc(NCCN4CCOCC4)ccc23)n[nH]1", "note": "[Example I-11, 2-Isopropyl-4-(5-methyl-1H-pyrazol-3-ylamino)-7-(2-morpholin-4-yl-ethylamino)-2H-phthalazin-1-one]", "IC50": "1 to 100"}
{"smiles": "CNc1ccc2c(Nc3cc(C)[nH]n3)nn(C(C)C)c(=O)c2c1", "note": "[Example I-12, 2-Isopropyl-7-methylamino-4-(5-methyl-1H-pyrazol-3-ylamino)-2H-phthalazin-1-one]", "IC50": "1 to 100"}
{"smiles": "Cc1cc(Nc2nn(C(C)C)c(=O)c3cc(CN4CCN(C)CC4)ccc23)n[nH]1", "note": "[Example L-1, 2-Isopropyl-7-(4-methyl-piperazin-1-ylmethyl)-4-(5-methyl-1H-pyrazol-3-ylamino)-2H-phthalazin-1-one]", "IC50": "1 to 100"}
{"smiles": "Cc1cc(Nc2nn(C(C)C)c(=O)c3cc(C(=O)O)ccc23)n[nH]1", "note": "[Example M-1, 3-Isopropyl-1-(5-methyl-1H-pyrazol-3-ylamino)-4-oxo-3,4-dihydro-phthalazine-6-carboxylic acid]", "IC50": "1 to 100"}
{"smiles": "CONC(=O)c1ccc2c(Nc3cc(C)[nH]n3)nn(C(C)C)c(=O)c2c1", "note": "[Example M-4, 3-Isopropyl-1-(5-methyl-1H-pyrazol-3-ylamino)-4-oxo-3,4-dihydro-phthalazine-6-carboxylic acid methoxy-amide]", "IC50": "1 to 100"}
{"smiles": "COCC(C)n1nc(Nc2cc(C)n[nH]2)c2ccccc2c1=O", "note": "(centres unmarked) [Example O-2, 2-(2-Methoxy-1-methyl-ethyl)-4-(5-methyl-2H-pyrazol-3-ylamino)-2H-phthalazin-1-one]", "IC50": "100 to 1000"}
{"smiles": "Cc1cc(Nc2nn(-c3ccc(-c4ccccc4C)cc3)c(=O)c3ccccc23)n[nH]1", "note": "[Example Q-2, 2-(2′-Methyl-biphenyl-4-yl)-4-(5-methyl-1H-pyrazol-3-ylamino)-2H-phthalazin-1-one]", "IC50": "1 to 100"}
{"smiles": "Cc1cc(Nc2nn(-c3ccc4ccccc4c3)c(=O)c3ccccc23)n[nH]1", "note": "[Example R-3, 4-(5-Methyl-1H-pyrazol-3-ylamino)-2-naphthalen-2-yl-2H-phthalazin-1-one]", "IC50": "1 to 100"}
{"smiles": "CC(=O)Nc1ccc(-n2nc(Nc3cc(C)[nH]n3)c3ccccc3c2=O)cc1", "note": "[Example T-1, N-{4-[4-(5-Methyl-1H-pyrazol-3-ylamino)-1-oxo-1H-phthalazin-2-yl]-phenyl}-acetamide]", "IC50": "100 to 1000"}
{"smiles": "Cc1cc(Nc2nn(-c3ccc(NS(C)(=O)=O)cc3)c(=O)c3ccccc23)n[nH]1", "note": "[Example T-5, N-{4-[4-(5-Methyl-1H-pyrazol-3-ylamino)-1-oxo-1H-phthalazin-2-yl]-phenyl}-methanesulfonamide]", "IC50": "1 to 100"}
{"smiles": "Cc1cc(Nc2nn(-c3ccc(C(F)(F)F)cc3Cl)c(=O)c3ccccc23)n[nH]1", "note": "[Example W-1, 2-(2-Chloro-4-trifluoromethyl-phenyl)-4-(5-methyl-1H-pyrazol-3-ylamino)-2H-phthalazin-1-one]", "IC50": "100 to 1000"}
{"smiles": "Cc1cc(Nc2nn(-c3cccc(C(C)(C)C)c3)c(=O)c3ccccc23)n[nH]1", "note": "[Example X-2, 2-(3-tert-Butyl-phenyl)-4-(5-methyl-1H-pyrazol-3-ylamino)-2H-phthalazin-1-one]", "IC50": "1 to 100"}
{"smiles": "CCOC(=O)Nc1ccc(-n2nc(Nc3cc(C)[nH]n3)c3ccccc3c2=O)cc1", "note": "[Example Y-2, {4-[4-(5-Methyl-1H-pyrazol-3-ylamino)-1-oxo-1H-phthalazin-2-yl]-phenyl}-carbamic acid ethyl ester]", "IC50": "1 to 100"}
